In the NIST ThermoML archive (doi:10.1021/je060271a):

Conditions: 283.15 K, Liquid, Vibrating tube method

CCCCCCCC(=O)OCC(COC(=O)CCCCCCC)(COC(=O)CCCCCCC)COC(=O)CCCCCCC [pentaerythritol tetraoctanoate]
Conditions | mass density [kg/m3]
16618 kPa | 979.5
16646 kPa | 979.5
16674 kPa | 979.5
16703 kPa | 979.6
16736 kPa | 979.5
16765 kPa | 979.6
16794 kPa | 979.5
16827 kPa | 979.7
16856 kPa | 979.7
16890 kPa | 979.7
16919 kPa | 979.7
16949 kPa | 979.6
16980 kPa | 979.7
17009 kPa | 979.6
17039 kPa | 979.7
17073 kPa | 979.7
17102 kPa | 979.7
17138 kPa | 979.7
17168 kPa | 979.9
17198 kPa | 979.9
17227 kPa | 979.7
17264 kPa | 979.9
17293 kPa | 979.9
17323 kPa | 979.8
17360 kPa | 979.9
17390 kPa | 979.9
17427 kPa | 979.9
17458 kPa | 980
17488 kPa | 980
17519 kPa | 979.9
17556 kPa | 980
17588 kPa | 980
17619 kPa | 980
17657 kPa | 980
17688 kPa | 980.1
17726 kPa | 980.1
17758 kPa | 980.1
17790 kPa | 980.1
17823 kPa | 980.2
17862 kPa | 980.2
17894 kPa | 980.2
17926 kPa | 980.1
17966 kPa | 980.2
17998 kPa | 980.1
18037 kPa | 980.2
18070 kPa | 980.2
18103 kPa | 980.3
18137 kPa | 980.4
18177 kPa | 980.3
18210 kPa | 980.4
18244 kPa | 980.4
18285 kPa | 980.3
18319 kPa | 980.3
18360 kPa | 980.5
18394 kPa | 980.4
18429 kPa | 980.3
18470 kPa | 980.4
18504 kPa | 980.5
18539 kPa | 980.6
18581 kPa | 980.6
18616 kPa | 980.6
18652 kPa | 980.5
18694 kPa | 980.6
18731 kPa | 980.6
18766 kPa | 980.8
18802 kPa | 980.7
18846 kPa | 980.7
18882 kPa | 980.7
18919 kPa | 980.7
18963 kPa | 980.7
18999 kPa | 980.8
19044 kPa | 980.7
19081 kPa | 980.7
19118 kPa | 980.8
19155 kPa | 980.8
19200 kPa | 980.9
19238 kPa | 980.9
19276 kPa | 980.8
19320 kPa | 980.9
19357 kPa | 980.9
19394 kPa | 980.9
19437 kPa | 981
19472 kPa | 980.9
19537 kPa | 981
19587 kPa | 981
19666 kPa | 981.2
19710 kPa | 981.2
19746 kPa | 981.2
19773 kPa | 981.1
19802 kPa | 981.2
19829 kPa | 981.2
19855 kPa | 981.2
19888 kPa | 981.2
19915 kPa | 981.2
19942 kPa | 981.4
19976 kPa | 981.2
20003 kPa | 981.3
20036 kPa | 981.3
20064 kPa | 981.4
20092 kPa | 981.3
20120 kPa | 981.4
20156 kPa | 981.4
20180 kPa | 981.4
20215 kPa | 981.4
20244 kPa | 981.3
20280 kPa | 981.5
20310 kPa | 981.5
20341 kPa | 981.5
20376 kPa | 981.5
20397 kPa | 981.5
20414 kPa | 981.5
20435 kPa | 981.5
20452 kPa | 981.6
20469 kPa | 981.5
20490 kPa | 981.5
20508 kPa | 981.6
20525 kPa | 981.6
20543 kPa | 981.7
20563 kPa | 981.5
20581 kPa | 981.4
20598 kPa | 981.6
20619 kPa | 981.6
20637 kPa | 981.5
20658 kPa | 981.6
20676 kPa | 981.7
20694 kPa | 981.6
20715 kPa | 981.7
20733 kPa | 981.6
20751 kPa | 981.7
20769 kPa | 981.6
20790 kPa | 981.8
20808 kPa | 981.7
20830 kPa | 981.8
20848 kPa | 981.6
20866 kPa | 981.7
20884 kPa | 981.7
20905 kPa | 981.7
20923 kPa | 981.9
20942 kPa | 981.7
20964 kPa | 981.8
20982 kPa | 981.9
21004 kPa | 981.8
21022 kPa | 981.9
21040 kPa | 981.9
21059 kPa | 981.9
21081 kPa | 981.8
21099 kPa | 981.9
21118 kPa | 982
21140 kPa | 981.8
21159 kPa | 982
21181 kPa | 982
21200 kPa | 981.9
21219 kPa | 981.9
21238 kPa | 982
21258 kPa | 981.8
21280 kPa | 981.9
21299 kPa | 982
21318 kPa | 982
21341 kPa | 982.1
21360 kPa | 982
21379 kPa | 982.1
21402 kPa | 982.1
21421 kPa | 982.1
21440 kPa | 982
21460 kPa | 982
21483 kPa | 982
21502 kPa | 982.1
21525 kPa | 982.1
21545 kPa | 982.1
21564 kPa | 982.1
21584 kPa | 982.1
21607 kPa | 982.2
21626 kPa | 982
21647 kPa | 982.2
21670 kPa | 982.1
21690 kPa | 982.2
21710 kPa | 982.1
21730 kPa | 982
21755 kPa | 982.2
21775 kPa | 982.2
21795 kPa | 982.3
21815 kPa | 982.3
21839 kPa | 982.3
21859 kPa | 982.2
21879 kPa | 982.2
21898 kPa | 982.2
21922 kPa | 982.3
21943 kPa | 982.2
21963 kPa | 982.3
21987 kPa | 982.4
22008 kPa | 982.4
22033 kPa | 982.3
22054 kPa | 982.4
22074 kPa | 982.4
22094 kPa | 982.3
22115 kPa | 982.4
22140 kPa | 982.4
22160 kPa | 982.5
22185 kPa | 982.5
22205 kPa | 982.4
22226 kPa | 982.4
22251 kPa | 982.5
22271 kPa | 982.4
22292 kPa | 982.4
22318 kPa | 982.5
22339 kPa | 982.5
22360 kPa | 982.5
22382 kPa | 982.4
22407 kPa | 982.7
22428 kPa | 982.6
22453 kPa | 982.7
22474 kPa | 982.6
22496 kPa | 982.5
22517 kPa | 982.5
22543 kPa | 982.6
22564 kPa | 982.6
22586 kPa | 982.4
22612 kPa | 982.6
22634 kPa | 982.6
22655 kPa | 982.6
22681 kPa | 982.8
22703 kPa | 982.7
22725 kPa | 982.7
22822 kPa | 982.8
22844 kPa | 982.8
22866 kPa | 982.8
22889 kPa | 982.8
22916 kPa | 982.7
22938 kPa | 982.9
22961 kPa | 982.8
22987 kPa | 982.8
23010 kPa | 982.8
23032 kPa | 982.9
23059 kPa | 982.8
23082 kPa | 982.9
23104 kPa | 982.8
23132 kPa | 983
23154 kPa | 982.9
23177 kPa | 982.9
23204 kPa | 982.9
23227 kPa | 982.9
23250 kPa | 983
23278 kPa | 983
23301 kPa | 982.9
23324 kPa | 983
23348 kPa | 982.9
23375 kPa | 983.1
23398 kPa | 983.1
23422 kPa | 983.1
23450 kPa | 983
23473 kPa | 983
23497 kPa | 983.1
23525 kPa | 983.2
23549 kPa | 983.1
23573 kPa | 983.2
23597 kPa | 983.1
23625 kPa | 983.2
23649 kPa | 983.1
23672 kPa | 983.2
23701 kPa | 983.3
23725 kPa | 983.2
23753 kPa | 983.2
23777 kPa | 983.1
23801 kPa | 983.2
23831 kPa | 983.2
23857 kPa | 983.3
23881 kPa | 983.3
23905 kPa | 983.4
23934 kPa | 983.2
23959 kPa | 983.3
23983 kPa | 983.4
24008 kPa | 983.3
24038 kPa | 983.2
24062 kPa | 983.4
24087 kPa | 983.3
24117 kPa | 983.4
24142 kPa | 983.3
24168 kPa | 983.5
24194 kPa | 983.5
24219 kPa | 983.5
24248 kPa | 983.5
24273 kPa | 983.5
24304 kPa | 983.4
24329 kPa | 983.6
24354 kPa | 983.5
24385 kPa | 983.5
24410 kPa | 983.5
24436 kPa | 983.5
24466 kPa | 983.6
24492 kPa | 983.7
24518 kPa | 983.6
24544 kPa | 983.7
24576 kPa | 983.6
24601 kPa | 983.7
24632 kPa | 983.6
